Earlier results in publication PMC11215690 (Clinical and Translational Science, 2024).

Tested on: healthy participants
Conditions: studies of healthy participants

| Compound | most frequently reported TEAEs |
| --- | --- |
| O=C(c1nc2n(n1)[C@H](c1ccccc1)C[C@@H]2F)C1CC1 [GDC‐8264] | headache and skin reaction of contact dermatitis |
| CN1C(=O)[C@@H](NC(=O)c2nnc(Cc3ccccc3)[nH]2)COc2ccccc21 [GSK2982772] | headache and skin reaction of contact dermatitis |
